# Experiments:
# salmon louse [1] = experiment: In vivo preliminary test for activity against the salmon louse following manual injection; design: species or system salmon louse on Atlantic salmon; conditions: naturally infected Atlantic salmon; single dose 40 mg fluazuron/kg body weight injected by hand into muscle tissue below dorsal fin; inspected 24, 48 and 72 hours later; at latest after 72 hours
# Procedure: 1. In Vivo Preliminary Test for Activity Against the Salmon Louse Following Manual […]
# 20 naturally infected Atlantic salmon of various sizes from a fish farm are transferred to a well-aerated seawater aquarium for acclimatisation. They are left there for 3 days and fed daily with the usual food. On the fourth day, they are caught individually with a fish basket and quickly weighed. Each fish is injected by hand using an injection needle with a single dose, according to formulation example 1, of 40 mg fluazuron/kg body weight into the muscle tissue below the dorsal fin. The treated fish are returned to their aquarium.
# salmon louse [2] = experiment: Semi-automated in vivo test for activity against the salmon louse (needleless inoculation gun); design: species or system salmon louse on Atlantic salmon; conditions: Atlantic salmon artificially infected with 5 pre-adult, 5 adult female and 5 adult male salmon lice; 45 mg fluazuron/kg body weight, needleless inoculation gun below dorsal fin; after 24 hours
# Text: 2. Semi-Automated In Vivo Test for Activity Against the Salmon Louse.
# Two well-aerated seawater aquariums, each of 5000 liter content, are set up parallel to one another at a distance of 2 m, with one being 10 cm higher than the other. The upper aquarium is provided with a kind of overflow which opens into a plexiglass channel which is open at the top and has a square inner cross-section of 10 cm. The upper end of this channel is secured by a movable grid and rests on the edge of the lower aquarium. Between the two aquariums, there is slight gradient. In the middle of the channel, two wire grids are attached with a 30 cm gap across the current, in such a way that they are either used as a water-permeable barrier or can be opened upwards on a hinge by a lever. At the bottom of the upper aquarium, there is an electrically controlled tail lift. When this is raised, the volume of water above it is diminished by reducing the depth of water. In addition, the upper aquarium contains a water feed which is secured by a grid and the lower aquarium has outlet holes. Water flows constantly from the upper to the lower aquarium. 200 Atlantic salmon of the same age are introduced into the upper aquarium and are each artificially infected with 5 pre-adult, 5 adult female and 5 adult male salmon lice. […]
# sea lice = conditions: in salt water (printed for trichlorfon); cited from earlier work
Compound,parasite infestation / number of surviving parasites (salmon louse [1]),parasite infestation / number of surviving parasites (salmon louse [2]),concentration required / effective against sea lice (sea lice) [ppm]
"O=C(NC(=O)c1c(F)cccc1F)Nc1ccc(Cl)c(Oc2ncc(C(F)(F)F)cc2Cl)c1 [fluazuron, 1-[4-chloro-3-(3-chloro-5-trifluoromethyl-2-pyridyloxy)phenyl]-3-(2,6-difluorobenzoyl)urea]",all the adult and pre-adult stages have been killed,all the female and male adults and pre-adult stages have been killed,
"COP(=O)(OC)C(O)C(Cl)(Cl)Cl (stereo not shown) [trichlorfon, dimethyl-2,2,2-trichloro-1-hydroxyethyl-phosphonate]",,,300
"COP(=O)(OC)OC=C(Cl)Cl [dichlorvos, 2,2-dichloroethenyl-dimethylphosphate]",,,≥ 1

# Reference: patent publication US6982285B2, “Control of parasites attached to skin of fish” (Novartis Animal Health US, Inc., priority 1999, dated 2006)
